{
  "source": "BigSolDB 2.1",
  "data": [
    {"smiles": "O.O=c1c(O)c(-c2ccc(O)cc2)oc2cc(O)cc(O)c12", "values": [
      {"measurement": "solubility (mole fraction)", "setting": "in ethanol, 283.15 K", "result": 0.00668},
      {"measurement": "solubility (mole fraction)", "setting": "in ethanol, 288.15 K", "result": 0.00812},
      {"measurement": "solubility (mole fraction)", "setting": "in ethanol, 293.15 K", "result": 0.00993},
      {"measurement": "solubility (mole fraction)", "setting": "in ethanol, 298.15 K", "result": 0.0121},
      {"measurement": "solubility (mole fraction)", "setting": "in ethanol, 303.15 K", "result": 0.0146},
      {"measurement": "solubility (mole fraction)", "setting": "in ethanol, 308.15 K", "result": 0.0178},
      {"measurement": "solubility (mole fraction)", "setting": "in ethanol, 313.15 K", "result": 0.0212},
      {"measurement": "solubility (mole fraction)", "setting": "in ethanol, 318.15 K", "result": 0.025},
      {"measurement": "solubility (mole fraction)", "setting": "in ethanol, 323.15 K", "result": 0.0295},
      {"measurement": "solubility (mole fraction)", "setting": "in isopropanol, 283.15 K", "result": 0.00356},
      {"measurement": "solubility (mole fraction)", "setting": "in isopropanol, 288.15 K", "result": 0.00502},
      {"measurement": "solubility (mole fraction)", "setting": "in isopropanol, 293.15 K", "result": 0.00676},
      {"measurement": "solubility (mole fraction)", "setting": "in isopropanol, 298.15 K", "result": 0.00907},
      {"measurement": "solubility (mole fraction)", "setting": "in isopropanol, 303.15 K", "result": 0.0126},
      {"measurement": "solubility (mole fraction)", "setting": "in isopropanol, 308.15 K", "result": 0.0171},
      {"measurement": "solubility (mole fraction)", "setting": "in isopropanol, 313.15 K", "result": 0.0222},
      {"measurement": "solubility (mole fraction)", "setting": "in isopropanol, 318.25 K", "result": 0.0281},
      {"measurement": "solubility (mole fraction)", "setting": "in isopropanol, 323.15 K", "result": 0.036},
      {"measurement": "solubility (mole fraction)", "setting": "in n-butanol, 283.15 K", "result": 0.00626},
      {"measurement": "solubility (mole fraction)", "setting": "in n-butanol, 288.15 K", "result": 0.00772},
      {"measurement": "solubility (mole fraction)", "setting": "in n-butanol, 293.15 K", "result": 0.00935},
      {"measurement": "solubility (mole fraction)", "setting": "in n-butanol, 298.15 K", "result": 0.0113},
      {"measurement": "solubility (mole fraction)", "setting": "in n-butanol, 303.15 K", "result": 0.0137},
      {"measurement": "solubility (mole fraction)", "setting": "in n-butanol, 308.15 K", "result": 0.0164},
      {"measurement": "solubility (mole fraction)", "setting": "in n-butanol, 313.15 K", "result": 0.0197},
      {"measurement": "solubility (mole fraction)", "setting": "in n-butanol, 318.15 K", "result": 0.0236},
      {"measurement": "solubility (mole fraction)", "setting": "in n-butanol, 323.15 K", "result": 0.028},
      {"measurement": "solubility (mole fraction)", "setting": "in n-propanol, 283.15 K", "result": 0.00621},
      {"measurement": "solubility (mole fraction)", "setting": "in n-propanol, 288.15 K", "result": 0.00727},
      {"measurement": "solubility (mole fraction)", "setting": "in n-propanol, 293.15 K", "result": 0.00861},
      {"measurement": "solubility (mole fraction)", "setting": "in n-propanol, 298.15 K", "result": 0.0103},
      {"measurement": "solubility (mole fraction)", "setting": "in n-propanol, 303.15 K", "result": 0.0121},
      {"measurement": "solubility (mole fraction)", "setting": "in n-propanol, 308.15 K", "result": 0.014},
      {"measurement": "solubility (mole fraction)", "setting": "in n-propanol, 313.15 K", "result": 0.0162},
      {"measurement": "solubility (mole fraction)", "setting": "in n-propanol, 318.15 K", "result": 0.0188},
      {"measurement": "solubility (mole fraction)", "setting": "in n-propanol, 323.15 K", "result": 0.0217},
      {"measurement": "solubility (mole fraction)", "setting": "in sec-butanol, 283.15 K", "result": 0.00599},
      {"measurement": "solubility (mole fraction)", "setting": "in sec-butanol, 288.15 K", "result": 0.00758},
      {"measurement": "solubility (mole fraction)", "setting": "in sec-butanol, 293.15 K", "result": 0.00926},
      {"measurement": "solubility (mole fraction)", "setting": "in sec-butanol, 298.15 K", "result": 0.0114},
      {"measurement": "solubility (mole fraction)", "setting": "in sec-butanol, 303.15 K", "result": 0.0138},
      {"measurement": "solubility (mole fraction)", "setting": "in sec-butanol, 308.15 K", "result": 0.0164},
      {"measurement": "solubility (mole fraction)", "setting": "in sec-butanol, 313.15 K", "result": 0.0196},
      {"measurement": "solubility (mole fraction)", "setting": "in sec-butanol, 318.15 K", "result": 0.0236},
      {"measurement": "solubility (mole fraction)", "setting": "in sec-butanol, 323.15 K", "result": 0.0285}
    ]}
  ]
}
